Experimental data from patent publication US20050272822A1 (priority 2001, published 2005).
Where a name gives a salt, the structure may show the parent alone.

Legend:
[1] = Water vapor sorption/desorption (dynamic vapor sorption); conditions: two water sorption/desorption cycles, 25° C.
Procedure: The sample weight changes were monitored as function of the time and relative humidity. Two identical relative humidity-time experiment cycles (0 to 90% relative humidity) were performed to detect any changes in solid-state properties.

[2] = Stability in moist environments and in processes involving water; format: physicochemical
histaminergic receptors = conditions: in vitro; cited from earlier work
adrenergic receptors = conditions: in vitro; cited from earlier work
muscaranic receptors = conditions: in vitro; cited from earlier work
monoamine oxidase = conditions: cited from earlier work

COc1ccc(C(CN(C)C)C2(O)CCCCC2)cc1 (stereo not shown) [venlafaxine hydrochloride monohydrate]
solid-state transition during dehydration/hydration cycling [1]: reversible
stability in moist environments ([2]; atmospheres having at least 20% relative humidity): stable
stability in processes involving water compared with known forms ([2]; processes involving water, such as wet granulation): more stable than known forms

COc1ccc(C(CN(C)C)C2(O)CCCCC2)cc1 (stereo not shown) [venlafaxine, 1-[2-(dimethylamino)-1-(4-methoxyphenyl)ethyl]cyclohexanol]
affinity for histaminergic receptors (histaminergic receptors): virtually no affinity
affinity for adrenergic receptors (adrenergic receptors): virtually no affinity
affinity for muscaranic receptors (muscaranic receptors): virtually no affinity
inhibitory activity on monoamine oxidase (monoamine oxidase): no inhibitory activity
